# Laboratory results published in US20220323426A1, “CHOLINERGIC POTENTIATION OF BINOCULAR VISION” (THE ROYAL INSTITUTION FOR THE ADVANCEMENT OF LEARNING / …, priority 2019, published 2022).
# Entries after “also recorded” stand apart in the source; their conditions may differ.
# What was measured:
# visual function = conditions: cited from earlier work
# [1] = tested on: replay rivalry criterion and response latency; assay: Rivalry replay control (criterion for mixed percept and response latency); type: in vivo, human; conditions: donepezil 5 mg oral vs placebo; F(1,22)=1.4
# From the text: To ensure any treatment effects were the result of changes in visual neural activity as opposed to changes in motor or executive function, a rivalry replay control experiment was implemented where participants watched computer-generated videos of simulated binocular rivalry, presented identically to both eyes. […] See FIG. 2 for additional details regarding the plots.
# Rivalry replay control. A rivalry replay control condition was used to characterize the criterion for categorizing a percept as mixed and to quantify the latency of binocular rivalry responses (Robertson et al., 2013, 2016). The replay control consisted of computer-generated videos presented binocularly, where the stimulus was oscillated from left-oriented gratings to right-oriented gratings along a continuous scale, such that the midpoint of this oscillation would produce a complete mixture of the two gratings. […]
# In addition, the overall rate of rivalry, defined as the total number of switches between the exclusive percepts divided by the run duration (Robertson et al., 2013, 2016) was extracted. In order to quantify the magnitude of the effect of the two treatment conditions relative to baseline, mean posttreatment values were divided by the mean baseline values to obtain post/pre ratios for each dependent variable across both experimental conditions. […]
# [2] = tested on: binocular rivalry dynamics; assay: Binocular rivalry task, double-blind placebo-controlled crossover, before and 3 h after donepezil or placebo; type: in vivo, human
# From the text: The binocular rivalry task consisted of a dichoptic stimulus where participants viewed a left-tilted grating in one eye and a right-tilted grating in the other for 90 s, continuously indicating via key-press whether they were seeing (1) the left eye's image, (2) the right eye's image, (3) a piecemeal mixture of the two images, or (4) a superimposed mixture of the two images (FIG. 1). This task was used to better characterize the mixed percepts while also encouraging participants not to miscategorize a mixed percept as exclusive.
# Binocular rivalry task. A previously developed (Skerswetat et al., 2018) binocular rivalry task was adapted to quantify the fractions and median durations of exclusive, piecemeal, superimposition, and overall mixed percepts (for illustrations, see FIG. 1B). At the beginning of each session, participants were shown images on a document that illustrated the differences between the left-oriented, right-oriented, and superimposition versus piecemeal mixed percepts. Participants were told that they would see a dynamic stimulus during the experiment and that their task was to track what they were seeing, with particular attention to timeliness and accuracy.
# Participants were given the option to continuously indicate whether they were seeing either (1) an exclusively left-tilted grating, (2) an exclusively right-tilted grating, (3) a superimposition mixed percept, or (4) a piecemeal mixed percept. Participants used three adjacent keys for the task, using the left to indicate exclusive left-tilt, right for right-tilt, a holding down a combination of the left and right keys for the piecemeal percepts, and the middle key for the superimposition percepts. It was specified that the criterion for exclusive percepts should be ˜90% left or right oriented.
# Experimental design and statistical analysis. […] Group assignment was counterbalanced across participants to control for possible session-order effects. The experimenter was not aware of the treatment condition of the two group assignments until after data collection was complete. For safety purposes, the experimenter recorded the participant's systolic blood pressure at baseline and monitored blood pressure levels throughout the experiment.
# The general protocol of each experimental block is outlined in FIG. 1A. Each block consisted of two binocular rivalry runs followed by two rivalry replay runs, each lasting 90 s.
# Each run (rivalry and replay) began with a dichoptic nonius cross presented inside a 3° oval surrounded by a black-and-white noise (1 cycle/degree) frame (side=10°). The observer was asked to make keypresses to adjust the position of the two frames to calibrate the optimal position for comfortable fusion. After confirmation, the participant was instructed to fixate at a fixation dot (0.2°) and place their hands on the appropriate keys to begin responding to the rivalry task. After a keypress, the dichoptic stimulus appeared and participants began responding to what they were observing on the monitor using the keypress instructions provided at the beginning of each session. Subsequent runs were initiated after a brief break where subjects viewed a mean-gray background screen. […] During the incubation period, subjects were instructed to keep both eyes open and do normal activities such as watching a movie or doing computer work in a well-lit room.
# Baseline and posttreatment measurements were drawn from four experimental blocks. A mandatory 2-min break was implemented between each experimental block to prevent fatigue.
smiles,measurement,setting,value
COc1cc2c(cc1OC)C(=O)C(CC1CCN(Cc3ccccc3)CC1)C2 (stereo not drawn) [donepezil],effect on monocular visual function using perceptual learning,"visual function; Chung et al., 2017",not useful to improve monocular visual function
same,effect on perceptual eye dominance changes from short term patching of one eye,"visual function; Sheynin et al., 2019",impede perceptual eye dominance changes
same,effect on criterion and response latency in rivalry replay control (MANOVA),[1],no observable differences; also recorded: not significant
same,overall effect on binocular rivalry dynamics (repeated measures MANOVA of post/pre values),"[2]; donepezil 5 mg oral vs placebo, F(1,22)=2.68, p=0.04",significantly altered binocular rivalry dynamics
same,participants with increases in the fraction of mixed visibility,"[2]; donepezil 5 mg oral, 3 h, 23 participants",19 out of 23
same,individuals exhibiting donepezil-induced increases of 0.50% in fraction of mixed visibility,"[2]; donepezil 5 mg oral, 3 h, of the 19 participants with increases",eight
same,decrease of rate of binocular rivalry,"[2]; po, 5 mg, 3 h",36%
same,enhancement of fraction of aggregate mixed visibility during rivalry,"[2]; po, 5 mg, 3 h",43%
same,enhancement of fraction visibility of superimposition percepts,"[2]; po, 5 mg, 3 h",70%
same,increase of median duration of mixed visibility,"[2]; po, 5 mg, 3 h",20%
same,increase of median duration of piecemeal percepts,"[2]; po, 5 mg, 3 h",49%
same,increase of median duration of superimposition percepts,"[2]; po, 5 mg, 3 h",54%
same,reduction of fraction of exclusive percepts,"[2]; po, 5 mg, 3 h",59%
same,reduction of fraction of piecemeal percepts,"[2]; po, 5 mg, 3 h",15%
same,reduction of median duration of exclusive percepts,"[2]; po, 5 mg, 3 h",78%
